Measurements reported in paper PMC6095626, “Screening of the Pathogen Box for inhibitors with dual efficacy against Giardia lamblia and Cryptosporidium parvum” (PLoS Neglected Tropical Diseases, 2018).

Columns and labels:
[1] = tested on: G. lamblia trophozoites (luciferase expressing, WBC6); assay: microbe, parasite or virus in culture; assay type: cell-based, Giardia lamblia; conditions: initial Pathogen Box screen, single concentration 16 µM, inhibition compared to DMSO wells
Method: Trophozoites were harvested by chilling cultures on ice for 30 minutes and plated by adding 150 μL per well at a concentration of 250,000 cells/mL. Metronidazole (Sigma, St. Louis, MO) was used as a control and was serially diluted 1:2 from 40 μM to 0.04 μM and 150 μL was added to the 150 μL of the G. lamblia trophozoites. Plates were covered in plastic low-evaporation lids, sealed in individual anaerobic BD GasPak Bio-Bags (Becton Dickinson, San Jose, CA) and incubated at 37 °C for 24 hours. […] A duplicate plate was concurrently set up and assayed using a MOXI Z Mini Automated Cell Counter Kit (Orflo, Ketchum, ID). Results obtained from the bioluminescence assay and the MOXI counter data were compared to evaluate their correlation to each another. Albendazole (Sigma, St. Louis, MO), an alternative giardiasis therapeutic, was assayed in concentrations from 4 μM to 0.004 μM with only the luciferase expressing G. lamblia cells. […]

[2] = tested on: C. parvum (UGA1 Nluc expressing strain in HCT-8 cells); assay: microbe, parasite or virus in culture; assay type: cell-based, Cryptosporidium parvum; conditions: for Crypto (10 uM) Mean % inhibition: initial Pathogen Box screen, single concentration 10 µM, inhibition compared to DMSO wells
Method: Growth inhibition and EC50 determination assays were performed using UGA1 Nluc expressing C. parvum strain in HCT-8 cells (ATCC^©, Manassas, VA) as previously described. HCT-8 cells were inoculated onto 96-well plates and allowed to grow for 48 hours to 90–100% confluence and then treated with single concentration (10 μM) or serially diluted compounds prior to oocyst infection. C. parvum oocysts were incubated for 10 minutes in 10% bleach at room temperature and then washed with DPBS. […] The cell monolayers were lysed for 1 hour before adding Nano-Glo® luciferase reagent (Promega, Madison, WI), and measuring relative luminescence units (RLU) in an EnVision Plate Reader (Perkin Elmer, Waltham, MA). Several parameters, including reproducibility and reliability, were previously evaluated to optimize this assay for low and high-throughput (HTP) screening of small molecule compounds against C. parvum. EC50 values were calculated using Prism 7 software (GraphPad Software, San Diego, CA).
C. parvum screening against the Pathogen Box compounds was performed as previously described starting at a concentration of 10 μM [23].

Structure (SMILES) | Giardia (16 uM) Mean % inhibition [1] | Crypto (10 uM) Mean % inhibition [2] | C. parvum EC50 ([2]; Nluc C. parvum in HCT-8 cells, 48 hours)
CC(C)C(C(=O)Nc1ccc(S(=O)(=O)N(C)C)cc1)c1ccc(Cl)cc1 (stereo not shown) [MMV020391] | 8% | 67% | 
COc1ccc(C2=NN(C3CCCCCC3)C(=O)[C@@H]3CC=CC[C@H]23)cc1OCCCCOc1ccc(-c2nn[nH]n2)cc1 [MMV690027] | 24% | 44% | 
Nc1ncnc2c1ncn2C[C@@H](O)[C@@H](O)C(=O)O [MMV689255] | 33% | 46% | 
N#Cc1ccc(-c2ccc(OCC(N)=O)cc2)cc1 [MMV053220] | 74% | 52% | 
COc1ccc(C(=N)N)cc1-c1cn(-c2ccc(C(=N)N)cc2)nn1 [MMV675998] | 30% | X* (Mean or standard deviation are negative but not significantly different from the control to be a growth promoter) | 
c1ccc(C[C@@H]2CN(c3nccc(Oc4ccc(-n5ccnc5)cc4)n3)CCN2)cc1 [MMV687749] | 24% | 58% | 
N=C(N)c1ccc(-c2cc(-c3ccccc3)on2)cc1 [MMV688514] | 36% | 79% | 
Cc1cc(Cl)c(S(=O)(=O)N2CCCC2)cc1OCC(=O)NC1CCCCC1 [MMV006833] | 17% | 70% | 
Cc1cc(C)n2nc(C(=O)Nc3cc(C(F)(F)F)ccc3N3CCOCC3)nc2n1 [MMV019087] | X* (Mean or standard deviation are negative but not significantly different from the control to be a growth promoter) | 35% | 
Brc1cncc(-c2cc(NCCCn3ccnc3)nc(-c3ccccc3)n2)c1 [MMV661713] | X* (Mean or standard deviation are negative but not significantly different from the control to be a growth promoter) | X* (Mean or standard deviation are negative but not significantly different from the control to be a growth promoter) | 
COc1cccn2c(C(=O)N3CCCCC3)c(C(F)(F)F)nc12 [MMV1110498] | 61% | 60% | 
COc1cc2ncnc(NC3CCN(Cc4ccccc4)CC3)c2cc1OC [MMV006741] | 35% | 45% | 
CCN(CC)CCCN1CCN(C(=O)c2cccc(-c3noc(C(F)(F)F)n3)c2)CC1 [MMV022236] | 8% | 38% | 
FC(F)(F)c1ccc(N(c2cccnc2)C2CCN(c3ccc(C(F)(F)F)cn3)CC2)cc1 [MMV689243] | 11% | X* (Mean or standard deviation are negative but not significantly different from the control to be a growth promoter) | 
CCn1ncc2c(NC3CCOCC3)c(CNC(=O)c3ccnn3C)c(C)nc21 [MMV026356] | 68% | 31% | 
Cc1c[nH]c(CCNC(=O)c2cc(-c3ccc(Cl)cc3)cs2)n1 [MMV676350] | 17% | X* (Mean or standard deviation are negative but not significantly different from the control to be a growth promoter) | 
COc1cccc(OCC(=O)c2ccc(Br)cc2)c1 [MMV676379] | 80% | 55% | 

Structure (SMILES) | Giardia (16 uM) Mean % inhibition [1] | Crypto (10 uM) Mean % inhibition [2] | C. parvum EC50 ([2]; Nluc C. parvum in HCT-8 cells, 48 hours)
C[C@@H]1[C@H](O)[C@@H](C)/C=C/C=C/C=C/C=C/C=C/C=C/C=C/[C@H](O[C@@H]2O[C@H](C)[C@@H](O)[C@H](N)[C@@H]2O)C[C@@H]2O[C@](O)(C[C@@H](O)C[C@@H](O)[C@H](O)CC[C@@H](O)C[C@@H](O)CC(=O)O[C@H]1C)C[C@H](O)[C@H]2C(=O)O [MMV689000] | 41% | X* (Mean or standard deviation are negative but not significantly different from the control to be a growth promoter) | 
Nc1cccnc1Nc1ccc(Cl)cc1 [MMV676524] | 26% | 83% | 
CCc1nn(C)c(C(=O)NCc2ccc(Oc3ccc(C)cc3)cc2)c1Cl [MMV688934] | 72% | 88% | 
O=C([C@@H](c1ccc(Cl)cc1)c1cccnc1)N1CCN(c2ccc(C(F)(F)F)cc2)CC1 [MMV689244] | 33% | X* (Mean or standard deviation are negative but not significantly different from the control to be a growth promoter) | 
CC[C@H](CO)NCCN[C@H](CC)CO [MMV687801] | X* (Mean or standard deviation are negative but not significantly different from the control to be a growth promoter) | 8% | 
CCc1ccc(S(=O)(=O)Nc2cc(CN3CCN(CCC(C)C)CC3)ccc2C)cc1 [MMV688124] | 72% | X* (Mean or standard deviation are negative but not significantly different from the control to be a growth promoter) | 
Cc1cc(NC(=O)c2ccc(Oc3ccc(Cl)cc3O)o2)no1 [MMV688955] | 26% | 50% | 
Cc1cc(Cl)ccc1NC(=O)CCc1ccc(S(=O)(=O)NCC(C)C)cc1 [MMV161996] | X* (Mean or standard deviation are negative but not significantly different from the control to be a growth promoter) | 41% | 
Cc1cc(NC(=O)c2ccc(S(=O)(=O)N(Cc3ccccc3)C(C)C)cc2)no1 [MMV007133] | 11% | X* (Mean or standard deviation are negative but not significantly different from the control to be a growth promoter) | 
O=C(Nc1c(O)cccc1-c1nc2c(C(=O)O)cccc2o1)c1cc(-c2ccccc2)on1 [MMV676008] | 41% | X* (Mean or standard deviation are negative but not significantly different from the control to be a growth promoter) | 
O=C(Nc1cccc(Cl)c1)c1cnc(N2CCN(c3ccncc3)CC2)c(Cl)c1 [MMV024406] | 91% | 91% | not potent
COc1ccc(-c2nn(C(C)C)c3ncnc(N)c23)cc1OC [MMV675993] | X* (Mean or standard deviation are negative but not significantly different from the control to be a growth promoter) | 89% | 
Cc1cc(NCCc2ccccc2)nc(NC(=N)Nc2ccc(Cl)cc2)n1 [MMV021660] | 90% | X* (Mean or standard deviation are negative but not significantly different from the control to be a growth promoter) | 
CN1CCCN(C(c2ccccc2)c2ccc(Cl)cc2)CC1 (stereo not shown) [MMV004168] | 27% | 56% | 
CNc1cc(C)nc(C2CN(C(=O)c3n[nH]c4ccccc34)CCO2)c1 (stereo not shown) [MMV689709] | 19% | 45% | 
NCC(=O)N1CCn2c(nc(-c3ccccc3)c2Nc2ccc3c(c2)OCO3)C1 [MMV011691] | 20% | X* (Mean or standard deviation are negative but not significantly different from the control to be a growth promoter) | 
